Data reported in patent EP2495244A1, “Piperidinyl benzoimidazole derivatives as mPGEs-1 inhibitors” (NovaSaid AB, priority 2011, dated 2012).

How the values were obtained:
[1] = system: cellular PGE2 synthesis; test: A549 cell-assay (PGE2 content of supernatant by EIA); assay type: cell-based; conditions: Homo sapiens, A549 lung carcinoma cells, TNFalfa (5 ng/mL) and IL-1beta (5 ng/mL) 16 hours, 30 minutes with test compound, 10 µM arachidonic acid 30 minutes, arithmetic mean values
Method: Prostaglandin detection kits were purchased from Cayman Chemicals and used according to the instruction of the manufacturer.
A549 lung carcinoma cells, seeded at a density of 10, 000 cells/well, were grown in 96 well tissue culture plates. TNFalfa (5 ng/mL) and IL-1beta (5 ng/mL) were added and the cells were incubated for 16 hours. Cells were washed in PBS and test compounds at the appropriate concentration in HBSS/0.1% BSA were added. After 30 minutes of incubation with test compounds, 10 µM arachidonic acid was added and cells were further incubated for 30 minutes. Supernatant was collected and analyzed for PGE2 content by EIA according to manufacturer's instructions. Table 1. Inhibition of human mPGEs-1 and cellular PGE2 synthesis.

[2] = target: T1, human mPGEs-1 (Homo sapiens, UniProt O14684); test: Thiobarbituric acid assay (TBA-MDA assay, malondialdehyde assay) for inhibition of mPGEs-1
T1 sequence (O14684 1-152): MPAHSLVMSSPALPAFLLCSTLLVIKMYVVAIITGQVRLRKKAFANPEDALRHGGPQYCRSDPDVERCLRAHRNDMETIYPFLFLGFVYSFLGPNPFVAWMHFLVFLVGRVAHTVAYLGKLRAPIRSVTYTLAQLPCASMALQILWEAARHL

IC50 [1] [nM]	IC50 [2] [nM]	Compound
58	25	Cc1cc2c(cc1Cl)nc(N1CCC(C(=O)N[C@@H]3CCOC3)CC1)n2-c1ccc2ccccc2n1 [Example 2, (R)-1-(5-Chloro-6-methyl-1-(quinolin-2-yl)-1H-benzo[d]imidazol-2-yl)-N-(tetrahydrofuran-3-yl)piperidine-4-carboxamide]
58	37	Cc1cc2nc(N3CCC(C(=O)N[C@@H]4CCOC4)CC3)n(-c3ccc4ccccc4n3)c2cc1Cl [Example 3, (R)-1-(6-Chloro-5-methyl-1-(quinolin-2-yl)-1H-benzo[d]imidazol-2-yl)-N (tetrahydrofuran-3-yl)piperidine-4-carboxamide]
44	35	O=C(N[C@@H]1CCOC1)C1CCN(c2nc3cc(Cl)c(Cl)cc3n2-c2ccc3cc(Cl)ccc3n2)CC1 [Example 4, (R)-1-(5,6-Dichloro-1-(6-chloroquinolin-2-yl)-1H-benzo[d]imidazol-2-yl)-N-(tetrahydrofuran-3-yl)piperidine-4-carboxamide]
4	34	O=C(N[C@@H]1CCOC1)C1CCN(c2nc3cc(Cl)c(Cl)cc3n2-c2ccc3cccc(Cl)c3n2)CC1 [Example 5, (R)-1-(5,6-Dichloro-1-(8-chloroquinolin-2-yl)-1H-benzo[d]imidazol-2-yl)-N-(tetrahydrofuran-3-yl)piperidine-4-carboxamide]
50	58	Cc1cc2nc(N3CCC(C(=O)N[C@@H]4CCOC4)CC3)n(-c3ccc4cc(Cl)ccc4n3)c2cc1C [Example 6, (R)-1-(1-(6-Chloroquinolin-2-yl)-5,6-dimethyl-1H-benzo[d]imidazol-2-yl)-N-(tetrahydrofuran-3-yl)piperidine-4-carboxamide]
30	32	Cc1cc(-n2c(N3CCC(C(=O)N[C@@H]4CCOC4)CC3)nc3cc(Cl)c(Cl)cc32)nc2ccccc12 [Example 7, (R)-1-(5,6-Dichloro-1-(4-methylquinolin-2-yl)-1H-benzo[d]imidazol-2-yl)-N-(tetrahydrofuran-3-yl)piperidine-4-carboxamide]
40	31	Cc1cc2c(cc1Cl)nc(N1CCC(C(=O)N[C@@H]3CCOC3)CC1)n2-c1ccc2cc(Cl)ccc2n1 [Example 8, (R)-1-(5-Chloro-1-(6-chloroquinolin-2-yl)-6-methyl-1H-benzo[d]imidazol-2-yl)-N-(tetrahydrofuran-3-yl)piperidine-4-carboxamide]
67	51	Cc1cc2nc(N3CCC(C(=O)N[C@@H]4CCOC4)CC3)n(-c3ccc4cc(Cl)ccc4n3)c2cc1Cl [Example 9, (R)-1-(6-Chloro-1-(6-chloroquinolin-2-yl)-5-methyl-1H-benzo[d]imidazol-2-yl)-N-(tetrahydrofuran-3-yl)piperidine-4-carboxamide]
61	42	O=C(N[C@@H]1CCOC1)C1CCN(c2nc3cc(Cl)c(Cl)cc3n2-c2ccc3cc(F)ccc3n2)CC1 [Example 10, (R)-1-(5,6-Dichloro-1-(6-fluoroquinolin-2-yl)-1H-benzo[d]imidazol-2-yl)-N-(tetrahydrofuran-3-yl)piperidine-4-carboxamide]
16	47	Cc1cc2c(cc1Cl)nc(N1CCC(C(=O)N[C@@H]3CCOC3)CC1)n2-c1ccc2cc(F)ccc2n1 [Example 11, (R)-1-(5-Chloro-1-(6-fluoroquinolin-2-yl)-6-methyl-1H-benzo[d]imidazol-2-yl)-N-(tetrahydrofuran-3-yl)piperidine-4-carboxamide]
24	26	Cc1cc2nc(N3CCC(C(=O)N[C@@H]4CCOC4)CC3)n(-c3ccc4cc(F)ccc4n3)c2cc1Cl [Example 12, (R)-1-(6-Chloro-1-(6-fluoroquinolin-2-yl)-5-methyl-1H-benzo[d]imidazol-2-yl)-N-(tetrahydrofuran-3-yl)piperidine-4-carboxamide]
	30	O=C(N[C@@H]1CCOC1)C1CCN(c2nc3cc(Cl)c(Cl)cc3n2-c2ccc3cccc(F)c3n2)CC1 [Example 13, (R)-1-(5,6-Dichloro-1-(8-fluoroquinolin-2-yl)-1H-benzo[d]imidazol-2-yl)-N-(tetrahydrofuran-3-yl)piperidine-4-carboxamide]
	21	O=C(N[C@@H]1CCOC1)C1CCN(c2nc3cc(Cl)c(Cl)cc3n2-c2cc3ccccc3cn2)CC1 [Example 14, (R)-1-(5,6-Dichloro-1-(isoquinolin-3-yl)-1H-benzo[d]imidazol-2-yl)-N-(tetrahydrofuran-3-yl)piperidine-4-carboxamide]
66	65	Cc1cc2nc(N3CCC(C(=O)N[C@@H]4CCOC4)CC3)n(-c3ccc4ncccc4c3)c2cc1C [Example 15, (R)-1-(5,6-dimethyl-1-(quinolin-6-yl)-1H-benzo[d]imidazol-2-yl)-N-(tetrahydrofuran-3-yl)piperidine-4-carboxamide]
	150	O=C(N[C@@H]1CCOC1)C1CCN(c2nc3cc(Cl)c(Cl)cc3n2-c2ccccn2)CC1 [Example 16, (R)-1-(5,6-dichloro-1-(pyridin-2-yl)-1H-benzo[d]imidazol-2-yl)-N-(tetrahydrofuran-3-yl)piperidine-4-carboxamide]

Compound	IC50 [1] [nM]	IC50 [2] [nM]
O=C(N[C@@H]1CCOC1)C1CCN(c2nc3cc(Cl)c(Cl)cc3n2-c2ccc3ccccc3n2)CC1 [Example 1, (R)-1-(5,6-Dichloro-1-(quinolin-2-yl)-1H-benzo[d]imidazol-2-yl)-N-(tetrahydrofuran-3-yl)piperidine-4-carboxamide]	43	
